Reference: the NIST ThermoML archive (doi:10.1021/je400402n)

Conditions: 101 kPa, Liquid, HP 4194A impedance-gain phase analyzer

C[S+](C)[O-] [dimethyl sulfoxide]
Conditions | electrical conductivity [S/m]
293.15 K | 0.000188
295.15 K | 0.000201
297.15 K | 0.000211
299.15 K | 0.000225
301.15 K | 0.000236
303.15 K | 0.000248
305.15 K | 0.000262
307.15 K | 0.000274
309.15 K | 0.000287
311.15 K | 0.0003
313.15 K | 0.000315
315.15 K | 0.000328
317.15 K | 0.000341
319.15 K | 0.000355
321.15 K | 0.000369
323.15 K | 0.000384
325.15 K | 0.000399
327.15 K | 0.000419
329.15 K | 0.000437
331.15 K | 0.000455
333.15 K | 0.000474
